Measurements as given in PMC13381803, “Phage-encoded factor stimulates DNA degradation by the Hna anti-phage defense system” (Nature Communications, 2026).

Key:
Assay type in all cases: biochemical
[1] = molecular target: T1, Hna (Sinorhizobium meliloti, UniProt Q92XN4, P712A/D713A/E727A); assay: malachite green phosphate release assay; settings: ssDNA present; Mg2+; pH 7.5; 37 °C
T1 construct: gene SMa2245; full length, 845 residues; recombinant E. coli (codon-optimised); N-terminal 6xHis-MBP-TEV tags cleaved with TEV; monomer, ATP-stabilised homodimer

[2] = molecular target: T2, Hna (Sinorhizobium meliloti, UniProt Q92XN4); assay: malachite green phosphate release assay; settings: 20 µM ATP; 10 nM ssDNA; 10 mM MgCl2; pH 7.5; 37 °C
T2 construct: gene SMa2245; full length, 845 residues; recombinant E. coli (codon-optimised); N-terminal 6xHis-MBP-TEV tags cleaved with TEV; monomer, ATP-stabilised homodimer

[3] = molecular target: T2, Hna; assay: ssDNA cleavage time courses by capillary electrophoresis, […] ATP; settings: 10 mM MgCl2; pH 7.5; 37 °C; nuclease read-out, ATP binds helicase domain

T2 sequence (Q92XN4 entry or part of it): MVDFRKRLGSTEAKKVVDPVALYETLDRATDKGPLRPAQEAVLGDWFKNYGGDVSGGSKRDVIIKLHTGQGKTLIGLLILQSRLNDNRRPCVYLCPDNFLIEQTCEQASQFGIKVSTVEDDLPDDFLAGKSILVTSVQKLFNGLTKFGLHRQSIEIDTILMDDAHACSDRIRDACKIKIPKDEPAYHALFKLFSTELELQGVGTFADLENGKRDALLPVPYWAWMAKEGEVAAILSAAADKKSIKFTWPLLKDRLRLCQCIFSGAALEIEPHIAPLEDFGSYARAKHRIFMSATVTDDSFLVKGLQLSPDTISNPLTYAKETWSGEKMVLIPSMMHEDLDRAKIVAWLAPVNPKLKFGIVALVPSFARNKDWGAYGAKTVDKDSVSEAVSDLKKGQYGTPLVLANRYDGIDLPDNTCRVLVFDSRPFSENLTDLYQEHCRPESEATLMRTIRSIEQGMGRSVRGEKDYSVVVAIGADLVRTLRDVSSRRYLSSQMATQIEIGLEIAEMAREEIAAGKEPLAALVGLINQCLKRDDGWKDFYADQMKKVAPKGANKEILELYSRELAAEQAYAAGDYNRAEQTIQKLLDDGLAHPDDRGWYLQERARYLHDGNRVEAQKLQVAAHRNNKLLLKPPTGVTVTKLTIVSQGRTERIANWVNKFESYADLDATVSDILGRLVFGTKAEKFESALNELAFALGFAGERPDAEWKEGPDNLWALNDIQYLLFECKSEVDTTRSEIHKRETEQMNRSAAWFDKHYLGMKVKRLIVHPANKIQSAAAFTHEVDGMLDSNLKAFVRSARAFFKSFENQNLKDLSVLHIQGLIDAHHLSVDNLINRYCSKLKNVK
T1 sequence (Q92XN4 entry or part of it P712A/D713A/E727A): as the sequence (Q92XN4 entry or part of it) above, with P712A, D713A, E727A counted along it

Question: For `Nc1ncnc2c1ncn2[C@@H]1O[C@H](COP(=O)(O)OP(=O)(O)OP(=O)(O)O)[C@@H](O)[C@H]1O` [ATP], which “ATPase activity (significant increase)” value [1] is on record?
Answer: significant increase in ATP hydrolysis by PDE Hna

Question: And the “malachite green phosphate release assay” value [2]?
Answer: Hna possesses minimal innate ATPase activity that is significantly enhanced by the inclusion of ssDNA

Question: And the “inhibition of ssDNA cleavage” value [3]?
Answer: significant reduction in ssDNA cleavage across all concentrations of ATP tested
